What was measured:
EP2 [1] = target: T1, EP2 (Homo sapiens, UniProt P43116); experiment: EP2 flipr; type: cell-based
Description: (§1) U.S. patent application Ser. No. 11/553,143, filed on Oct. 26, 2006, incorporated by reference herein in its entirety, describes the methods used to obtain the in vitro data in the table below.

EP2 [2] = target: T1, EP2; experiment: EP2 binding Ki
Description: as §1

EP2 [3] = target: T1, EP2; experiment: EP2 cAMP; type: cell-based
Description: as §1

hEP3A = target: T2, hEP3A (Homo sapiens, UniProt P43115); experiment: Other receptors hEP3A; type: cell-based
T2 sequence (P43115 1-390): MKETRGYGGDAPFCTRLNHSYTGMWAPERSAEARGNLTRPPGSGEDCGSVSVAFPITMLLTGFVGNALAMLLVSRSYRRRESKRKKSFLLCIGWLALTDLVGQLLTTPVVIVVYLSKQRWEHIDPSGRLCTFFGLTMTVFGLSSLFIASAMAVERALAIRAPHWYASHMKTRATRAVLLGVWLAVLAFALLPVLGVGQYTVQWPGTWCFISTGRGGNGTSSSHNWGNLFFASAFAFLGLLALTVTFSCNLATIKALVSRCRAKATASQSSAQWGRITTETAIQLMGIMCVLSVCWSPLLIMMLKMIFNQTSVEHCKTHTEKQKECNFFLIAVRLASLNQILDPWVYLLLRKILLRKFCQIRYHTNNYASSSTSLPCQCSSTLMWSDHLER
Description: as §1

EP4 [4] = target: T3, EP4 (Homo sapiens, UniProt P35408); experiment: EP4 flipr; type: cell-based
T3 sequence (P35408 whole entry): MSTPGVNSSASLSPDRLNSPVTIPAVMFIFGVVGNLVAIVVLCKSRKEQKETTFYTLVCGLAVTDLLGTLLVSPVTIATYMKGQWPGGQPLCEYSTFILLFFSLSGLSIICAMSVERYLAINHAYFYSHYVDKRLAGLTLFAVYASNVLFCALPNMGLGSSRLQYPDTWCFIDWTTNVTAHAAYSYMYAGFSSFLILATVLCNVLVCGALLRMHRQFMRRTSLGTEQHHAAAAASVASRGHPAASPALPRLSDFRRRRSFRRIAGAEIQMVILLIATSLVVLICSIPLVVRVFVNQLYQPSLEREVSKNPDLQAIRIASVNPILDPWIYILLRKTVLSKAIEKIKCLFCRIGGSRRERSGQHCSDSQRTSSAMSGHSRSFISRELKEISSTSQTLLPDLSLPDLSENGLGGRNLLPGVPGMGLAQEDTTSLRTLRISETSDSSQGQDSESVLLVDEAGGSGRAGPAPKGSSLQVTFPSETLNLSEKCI
Description: as §1

EP4 [5] = target: T3, EP4; experiment: EP4 binding Ki
Description: as §1

T1 sequence (P43116 whole entry): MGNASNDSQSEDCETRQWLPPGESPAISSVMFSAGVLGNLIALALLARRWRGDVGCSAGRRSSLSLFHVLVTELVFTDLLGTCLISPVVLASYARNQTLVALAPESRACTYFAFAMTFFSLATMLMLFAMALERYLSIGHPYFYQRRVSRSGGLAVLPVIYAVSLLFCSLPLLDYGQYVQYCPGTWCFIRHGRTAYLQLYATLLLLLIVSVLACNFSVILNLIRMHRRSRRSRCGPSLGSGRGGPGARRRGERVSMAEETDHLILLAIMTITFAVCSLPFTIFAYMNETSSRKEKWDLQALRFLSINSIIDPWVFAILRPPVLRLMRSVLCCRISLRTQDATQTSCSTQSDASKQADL

Row | EC50 (EP2 [1]) | Ki (EP2 [2]) | EC50 (EP2 [3]) | EC50 (hEP3A) | EC50 (EP4 [4]) | Ki (EP4 [5]) | Compound
1 | 79 nM | 30 nM | 3 nM | 7100 nM | – | – | O=C(O)c1ccc(CCC[C@H]2C(C(F)(F)F)C[C@@H](O)[C@@H]2C#Cc2ccccc2)s1 (single isomer, unassigned) [Example 23]
2 | 107 nM | 41 nM | 4 nM | – | – | – | O=C(O)c1ccc(CCC[C@@H]2[C@@H](C#Cc3ccccc3)[C@H](O)C[C@H]2C(F)(F)F)s1 (single isomer, unassigned) [Example 24]
3 | 101 nM | 10 nM | 1.3 nM | – | 15900 nM | 3500 nM | O=C(O)c1ccc(CCC[C@@H]2[C@@H](/C=C/c3cncc(Cl)c3)[C@H](O)C[C@H]2Cl)s1 [Example 3, 5-(3-((1R,2R,3R,5R)-5-chloro-2-((E)-2-(5-chloropyridin-3-yl)vinyl)-3-hydroxycyclopentyl)propyl)-thiophene-2-carboxylic acid]
4 | 44 nM | 2.3 nM | 0.09 nM | – | 15900 nM | 162 nM | O=C(O)c1ccc(CCC[C@@H]2[C@@H](/C=C/c3cc(Cl)nc(Cl)c3)[C@H](O)C[C@H]2Cl)s1 [Example 4, 5-(3-((1R,2R,3R,5R)-5-chloro-2-((E)-2-(2,6-dichloropyridin-4-yl)vinyl)-3-hydroxycyclopentyl)propyl)-thiophene-2-carboxylic acid]
5 | 328 nM | 8 nM | 1.4 nM | – | 10000 nM | 86 nM | Cc1cc(C)cc(/C=C/[C@@H]2[C@@H](CCCc3ccc(C(=O)O)s3)[C@H](Cl)C[C@H]2O)c1 [Example 8, 5-(3-((1R,2R,3R,5R)-5-chloro-2-(3,5-dimethylstyryl)-3-hydroxycyclopentyl)propyl)thiophene-2-carboxylic acid]
6 | 72 nM | 0.7 nM | 0.03 nM | 5780 nM | 17300 nM | 288 nM | C=CCCc1cccc(/C=C/[C@@H]2[C@@H](CCCc3ccc(C(=O)O)s3)[C@H](Cl)C[C@H]2O)c1 [Example 9, 5-(3-((1R,2R,3R,5R)-2-(3-(but-3-enyl)styryl)-5-chloro-3-hydroxycyclopentyl)propyl)thiophene-2-carboxylic acid]
7 | 1640 nM | 1.4 nM | 0.1 nM | – | > 10000 nM | 90 nM | C/C=C/c1cc(Cl)cc(/C=C/[C@@H]2[C@@H](CCCc3ccc(C(=O)O)s3)[C@H](Cl)C[C@H]2O)c1 [Example 10, 5-(3-((1R,2R,3R,5R)-5-chloro-2-((E)-3-chloro-5-((E)-prop-1-enyl)styryl)-3-hydroxycyclopentyl)propyl)thiophene-2-carboxylic acid]
8 | 2180 nM | 24 nM | 12 nM | – | 6460 nM | 239 nM | C/C=C/c1cc(Cl)cc(/C=C\[C@@H]2[C@@H](CCCc3ccc(C(=O)O)s3)[C@H](Cl)C[C@H]2O)c1 [Example 11, 5-(3-((1R,2R,3R,5R)-5-chloro-2-((Z)-3-chloro-5-((E)-prop-1-enyl)styryl)-3-hydroxycyclopentyl)propyl)thiophene-2-carboxylic acid]
9 | > 10000 nM | 2 nM | 0.4 nM | – | > 10000 nM | 193 nM | CCCc1cc(/C=C/[C@@H]2[C@@H](CCCc3ccc(C(=O)O)s3)[C@H](Cl)C[C@H]2O)ccn1 [Example 13, 5-(3-((1R,2R,3R,5R)-5-chloro-3-hydroxy-2-((E)-2-(2-propylpyridin-4-yl)vinyl)cyclopentyl)propyl)thiophene-2-113 carboxylic acid]
10 | 7 nM | 1.2 nM | 0.04 nM | 3880 nM | 3460 nM | 616 nM | O=C(O)c1csc(SCC[C@@H]2[C@@H](/C=C/c3cc(Cl)cc(Cl)c3)[C@H](O)C[C@H]2Cl)n1 [Example 14, 2-(2-((1R,2R,3R,5R)-5-chloro-2-(3,5-dichlorostyryl)-3-hydroxycyclopentyl)ethylthio)thiazole-4-carboxylic acid]
11 | 9 nM | 5 nM | 0.05 nM | 11000 nM | 33800 nM | 700 nM | O=C(O)c1ccc(CCC[C@H]2C(=O)C[C@@H](O)[C@@H]2C#Cc2ccccc2)s1 [Example 17, 5-(3-((1R,2S,3R)-3-hydroxy-5-oxo-2-(phenylethynyl)cyclopentyl)propyl)thiophene-2-carboxylic acid]
12 | 22 nM | 30 nM | 0.6 nM | – | 3220 nM | 1790 nM | O=C(O)c1ccc(CCC[C@@H]2C(=O)C[C@@H](O)[C@@H]2C#Cc2ccccc2)s1 [Example 18, 5-(3-((1S,2S,3R)-3-hydroxy-5-oxo-2-(phenylethynyl)cyclopentyl)propyl)thiophene-2-carboxylic acid]
13 | 349 nM | 4 nM | 0.23 nM | > 10000 nM | 26600 nM | 1020 nM | O=C(O)c1ccc(CCC[C@@H]2[C@@H](C#Cc3ccccc3)[C@H](O)C[C@H]2F)s1 [Example 19, 5-(3-((1R,2S,3R,5R)-5-fluoro-3-hydroxy-2-(phenylethynyl)cyclopentyl)propyl)thiophene-2-carboxylic acid]
14 | 235 nM | 13 nM | 0.18 nM | > 10000 nM | 21200 nM | 587 nM | N#C[C@@H]1C[C@@H](O)[C@H](C#Cc2ccccc2)[C@H]1CCCc1ccc(C(=O)O)s1 [Example 22, 5-(3-((1S,2S,3R,5R)-5-cyano-3-hydroxy-2-(phenylethynyl)cyclopentyl)propyl)thiophene-2-carboxylic acid]
15 | 133 nM | < 0.08 nM | 0.09 nM | – | 1910 nM | 466 nM | O=C(O)c1ccc(CCC[C@@H]2[C@@H](C#Cc3cc(Cl)cc(Cl)c3)[C@H](O)C[C@H]2Cl)s1 [Example 25, 5-(3-((1R,2S,3R,5R)-5-chloro-2-((3,5-dichlorophenyl)ethynyl)-3-hydroxycyclopentyl)propyl)thiophene-2-carboxylic acid]
16 | 56 nM | 0.3 nM | 0.08 nM | – | 616 nM | 316 nM | CCc1cccc(C#C[C@@H]2[C@@H](CCCc3ccc(C(=O)O)s3)[C@H](Cl)C[C@H]2O)c1 [Example 26, 5-(3-((1R,2S,3R,5R)-5-chloro-2-((3-ethylphenyl)ethynyl)-3-hydroxycyclopentyl)propyl)thiophene-2-carboxylic acid]
17 | 19 nM | 1 nM | 0.03 nM | – | 11000 nM | 436 nM | C=CCCc1cccc(C#C[C@@H]2[C@@H](CCCc3ccc(C(=O)O)s3)[C@H](Cl)C[C@H]2O)c1 [Example 27, 5-(3-((1R,2S,3R,5R)-2-((3-(but-3-enyl)phenyl)ethynyl)-5-chloro-3-hydroxycyclopentyl)propyl)thiophene-2-carboxylic acid]
18 | – | 64 nM | 3.3 nM | – | 5910 nM | 1870 nM | O=C(O)c1ccc(CCC[C@@H]2[C@@H](C#Cc3ccsc3)[C@H](O)C[C@H]2Cl)s1 [Example 29, 5-(3-((1R,2S,3R,5R)-5-chloro-3-hydroxy-2-(thiophen-3-ylethynyl)cyclopentyl)propyl)thiophene-2-carboxylic acid]
19 | 3 nM | 11 nM | 0.2 nM | – | > 10000 nM | 2140 nM | O=C(O)c1ccc(CCC[C@@H]2[C@@H](C#Cc3ccccn3)[C@H](O)C[C@H]2Cl)s1 [Example 30, 5-(3-((1R,2S,3R,5R)-5-chloro-3-hydroxy-2-(pyridin-2-ylethynyl)cyclopentyl)propyl)thiophene-2-carboxylic acid]
20 | 2 nM | 4 nM | 0.3 nM | – | 4200 nM | 1440 nM | O=C(O)c1ccc(CCC[C@@H]2[C@@H](C#Cc3cccnc3)[C@H](O)C[C@H]2Cl)s1 [Example 31, 5-(3-((1R,2S,3R,5R)-5-chloro-3-hydroxy-2-(pyridin-3-ylethynyl)cyclopentyl)propyl)thiophene-2-carboxylic acid]
21 | 306 nM | 79 nM | 7 nM | – | > 10000 nM | 8670 nM | O=C(O)c1ccc(CCC[C@@H]2[C@@H](C#Cc3ccncc3)[C@H](O)C[C@H]2Cl)s1 [Example 32, 5-(3-((1R,2S,3R,5R)-5-chloro-3-hydroxy-2-(pyridin-4-ylethynyl)cyclopentyl)propyl)thiophene-2-carboxylic acid]
22 | – | 2 nM | 0.22 nM | – | 8990 nM | 1520 nM | O=C(O)c1ccc(CCC[C@@H]2[C@@H](C#Cc3cccc(CCCO)c3)[C@H](O)C[C@H]2Cl)s1 [Example 33, 5-(3-((1R,2S,3R,5R)-5-chloro-3-hydroxy-2-((3-(3-hydroxypropyl)phenyl)ethynyl)cyclopentyl)propyl)thiophene-2-carboxylic acid]
